{"source": "patent US9579381B2", "about": "(priority 2012, dated 2017)", "system": "H37Rv S315T (KatG mutant)", "type": "cell-based, Mycobacterium tuberculosis"}
{"compound": "NNC(=O)c1ccncc1", "note": "[INH, Isoniazid]", "values": [{"measurement": "dependence of activity on KatG", "result": "dependent upon KatG"}]}
